Entries after “also recorded” stand apart in the source; their conditions may differ.
Assays:
[1] = tested on: NHDF normal human dermal fibroblasts; test: in vitro; assay type: cell-based; details: NHDF
Description: (§1) In addition to the screening already discussed, several of the before-described compounds and chimeras were screened against several or all of a panel of ten to twenty-five cancerous cell lines as target cells and seven "normal" cell preparations. This screening utilized a sulforhodamine B cytotoxidity assay as discussed below.
(§2) IC50 values; i.e., the concentration of Compound required to kill one-half of the treated cells, were then calculated.
NHDF Normal human dermal fibroblasts

φX174 Form I DNA = details: literature; cited from earlier work
[2] = mice, comparison value; cited from earlier work
[3] = tested on: MOLT-4 (Leukemia) cell line; test: cells; assay type: cell-based; details: Homo sapiens, MOLT-4, Molt-4 leukemia cell line; read-out: IC50
Description: as §1, §2

SK-Mel-28 melanoma cells = test: Sulforhodamine B cytotoxicity, SK-Mel-28; assay type: cell-based; details: Homo sapiens, SK-MEL-28, SK-Mel-28; read-out: IC50
Description: as §1, §2

[4] = tested on: Ovcar-3 ovarian carcinoma cells; test: Sulforhodamine B cytotoxicity, Ovcar-3; assay type: cell-based; details: Homo sapiens, OVCAR-3, Ovcar-3; read-out: IC50
Description: as §1, §2

[5] = tested on: HT-29 colon carcinoma cells; test: Sulforhodamine B cytotoxicity, HT-29; assay type: cell-based; details: Homo sapiens, HT-29, colon carcinoma H-29 (Table 4) / HT-29 (Table 5); read-out: IC50
Description: as §1, §2

[6] = tested on: MCF-7 breast carcinoma cells; test: Sulforhodamine B cytotoxicity, MCF-7; assay type: cell-based; details: Homo sapiens, MCF7, MCF-7; read-out: IC50
Description: as §1, §2

[7] = tested on: MCF-7(ADR) breast carcinoma cells; test: Sulforhodamine B cytotoxicity, MCF-7/ADR; assay type: cell-based; details: Homo sapiens, NCI/ADR-RES, Adriamycin resistant
Description: as §1, §2

[8] = tested on: H-322 lung carcinoma cells; test: Sulforhodamine B cytotoxicity, H-322; assay type: cell-based; details: NCI-H322; H-322; read-out: IC50
Description: as §1, §2

[9] = tested on: Capan-1 pancreatic carcinoma cells; test: Sulforhodamine B cytotoxicity, Capan-1; assay type: cell-based; details: Homo sapiens, CAPAN-1, Capan-1; read-out: IC50
Description: as §1, §2

[10] = tested on: HL-60 promyeocytic leukemia cells; test: Sulforhodamine B cytotoxicity, HL-60; assay type: cell-based; details: Homo sapiens, HL-60, HL-60; read-out: IC50
Description: as §1, §2

[11] = tested on: PC-3 prostate carcinoma cells; test: Sulforhodamine B cytotoxicity, PC-3; assay type: cell-based; details: Homo sapiens
Description: as §1, §2

[12] = tested on: SIHA cervical carcinoma cells; test: Sulforhodamine B cytotoxicity, SIHA; assay type: cell-based; details: Homo sapiens
Description: as §1, §2

[13] = tested on: NHEK normal human epidermal keratinocytes; test: Sulforhodamine B cytotoxicity, NHEK; assay type: cell-based; details: normal cells
Description: as §1, §2
NHEK Normal human epidermal keratinocytes

[14] = tested on: HMEC human mammary epithelial cells; test: Sulforhodamine B cytotoxicity, HMEC; assay type: cell-based; details: Homo sapiens, normal cells
Description: as §1, §2
HMEC Human mammary epithelial cells

[15] = tested on: CHO Chinese hamster ovary cells; test: Sulforhodamine B cytotoxicity, CHO; assay type: cell-based; details: Cricetulus griseus; CHO, normal cells
Description: as §1, §2

Water solubility = assay type: physicochemical
cancer cell lines = test: cells; assay type: cell-based; details: Average data obtained from 5~10 cell lines; read-out: IC50 (average)
[16] = tested on: MB49 murine bladder carcinoma cells; test: 6-well cytotoxicity assay, MB49; assay type: cell-based; details: MB-49
Description: MIA PaCa-2 cells, MB-49, CV-1 or WI-38 cells were loaded into each well of a 6-well plate at a density of 100,000 cells/well in 3 ml culture medium. They were incubated for 4 hours (37° C., 7 percent CO2). Then 6 microliters of solution containing a compound to be assayed were added into 3 ml of medium (RPMI-1640, with 5 percent fetal bovine serum and 1 percent glutamine) in a 500X dilution so that in one well ethanol was added to make a 0.2 percent ethanol control. The plates were then incubated for 4 days (37° C., 7 percent CO2). The medium was then drained, crystal violet dye (Hucker formula) was added to cover the well bottoms and then they were rinsed with tap water until rinses were clear. The stained cells were solubilized for quantitation with Sarkosyl solution (N-Lauryl sarcosine, 1 percent in water) at 3 ml/well. The absorbance of the solution was then read at 590-650 nm.

SMILES: CCN[C@H]1CO[C@@H](O[C@H]2[C@H](O[C@H]3C#C/C=C\C#C[C@]4(O)CC(=O)C(NC(=O)OC)=C3/C4=C\CSSSC)O[C@H](C)[C@@H](NO[C@H]3C[C@H](O)[C@H](SC(=O)c4c(C)c(I)c(O[C@@H]5O[C@@H](C)[C@H](O)[C@@H](OC)[C@H]5O)c(OC)c4OC)[C@@H](C)O3)[C@@H]2O)C[C@@H]1OC [Calicheamicin]
- IC50 ([1]; control drugs, read-out: Range of Average IC50 Values, NHDF): 2.5 nM
- DNA cleavage sequence specificity (φX174 Form I DNA): double DNA strand cuts at specific sequences
- LD50 [2]: 5 µg/kg

SMILES: C[N+](C)(C)CC(=O)OCCOc1ccc2c(c1)[C@@]13O[C@]14CCC[C@H]3C#C/C=C\C#C[C@@H]4N2C(=O)OCCS(=O)(=O)c1ccccc1 (relative stereo) [Compound 250]
- IC50 [3]: ~100000 nM
- IC50 ([1]; Homo sapiens, normal cells, read-out: IC50): 6300 nM
- IC50 (SK-Mel-28 melanoma cells): 3100 nM
- IC50 [4]: > 98 nM
- IC50 [5]: 190 nM
- IC50 [6]: > 98 nM
- IC50 [7]: 190 nM
- IC50 [8]: 13000 nM
- IC50 [9]: > 98 nM
- IC50 [10]: > 98 nM
- IC50 [11]: 1600 nM
- IC50 [12]: > 98 nM
- IC50 [13]: 1600 nM
- IC50 [14]: 3100 nM
- IC50 [15]: 98 nM
- water solubility (Water solubility): enhanced water solubility as compared to Compound 153; also recorded: more water soluble derivative of Compound 153

SMILES: O=C(Oc1ccccc1)N1c2ccccc2C23OC24CCCC3(O)C#C/C=C\C#CC14 (stereo not drawn) [Compound 2]
- IC50 (cancer cell lines): 6300 nM
- anti-tumor cell activity [16]: more active against the cancerous MB-49 cells than against non-transformed CV-1 African green monkey kidney cells (ATCC CCL 70) or WI-38 human lung cells
